System: Plasmopara viticola
Test: Action against Plasmopara viticola on vines (preventive leaf spray, Colby evaluation)
Type: in vivo
Details: for O Observed action: evaluation after 7 days
Source text: Fungicides have a synergistic effect whenever the fungicidal action of the active ingredient combination is greater than the sum of the actions of the active ingredients when applied individually.
The action E to be expected for a given active ingredient combination, for example of two fungicides, obeys the so-called COLBY formula and can be calculated as follows (COLBY, L. R. “Calculating synergistic and antagonistic responses of herbicide combinations”. Weeds 15, pages 20-22, 1967) (LIMPEL et al., […] “Weeds control by . . . certain combinations”. Proc. NEWCL, Vol. 16, pp. 48-53):
(mg a.i./liter=milligrams of active ingredient per liter or a multiple thereof) X=% action by fungicide I at p mg a.i./liter
Y=% action by fungicide II at q mg a.i./liter
E=the expected action of fungicides I+II at a rate of application of p+q mg a.i./liter (additive action), then according to Colby: [formula]
If the action (O) actually observed is greater than the expected action, then the action of the combination is superadditive, i.e. there is a synergistic effect.
1) Action Against Plasmopara viticola on Vines
Small vine plants of the variety “Gutedel” are each grown in a plant-pot (diameter=6 cm) under greenhouse conditions and are sprayed in the two-leaf stage with an active ingredient mixture prepared from an emulsifiable concentrate. The following concentrations of active ingredient are each applied to four plants: […]
metalaxyl racemate: 2 mg and 6 mg a.i./liter;
R-metalaxyl (100%): 0.06 mg and 0.6 mg a.i./liter; mancozeb: 2 mg and 6 mg a.i./liter.
These dilutions are prepared in demineralised water immediately before the leaves are sprayed. In order to eliminate the effect of the gas phase of the metalaxyl in the vicinity, all the plants are separated from one another laterally by means of transparent plastics films and are kept in the dark for one day at 20-22° C. and about 100% relative humidity.
The entire surface of the leaves of the plants is then uniformly sprayed to drip point with a freshly prepared sporangia suspension (120 000/ml) of a strain of Plasmopara viticola that is sensitive to metalaxyl. The plants are then kept at 20-22° C. and about 100% relative humidity for 7 days under artificial daylight of 16 hours' duration. Evaluation of the infestation is then carried out. The Tables show in each case the average of four parallel sprayings. The expected action in the case of mixtures is calculated according to COLBY.
Level of action of racemic metalaxyl and R-metalaxyl in admixture with residual component mancozeb

[1] = single active ingredient 2 mg a.i./l, vines Gutedel, infection 1 day after spraying, average of four
[2] = single active ingredient 6 mg a.i./l, vines

How did the “O Observed action” value [1] turn out when mancozeb was run?
The value was 0%.

What about the “O Observed action” value [2] of the same compound?
Its value is 20%.

What does the source list for `COCC(=O)N(c1c(C)cccc1C)C(C)C(=O)OC` (stereo not shown) [Metalaxyl, metalaxyl]?
O Observed action [1]: 12%; O Observed action [2]: 24%

`COCC(=O)N(c1c(C)cccc1C)[C@H](C)C(=O)OC` (single isomer, unassigned) [R-enantiomer of metalaxyl, R-metalaxyl] was tested. Which “improvement of action when the R-enantiomer is used instead of racemic metalaxyl” value (in admixture with 2 mg or 6 mg of mancozeb, 0.06 mg R-metalaxyl corresponds to 2 mg racemic metalaxyl) did it give?
The value was “about 30 fold”.

And the “O Observed action” value (single active ingredient 0.06 mg a.i./l, vines)?
The value was 12%.

And the “O Observed action” value (single active ingredient 0.6 mg a.i./l, vines)?
The value was 18%.
